Measured values published in PMC11994961, “In Vivo pharmacokinetic interactions of ribociclib with rivaroxaban and apixaban in rats: implications for increased drug exposure and dose adjustments” (Frontiers in Pharmacology, 2025).

What was measured:
[1] = Stability of ribociclib QC samples in rat plasma; format: in vitro ADME; conditions: room temperature, autosampler 15°C, −80°C, three freeze-thaw cycles
Procedure: The method was validated per the guidelines of the Food and Drug Administration (US-FDA, 2022) and Chinese Pharmacopoeia (2020). Selectivity was determined by analyzing blank plasma samples from six different batches of rats and plasma samples from six different batches of rats after administration of ribociclib. There should be no interference, with retention times such that the blank plasma peak area is less than 5% of the internal standard (IS) and less than 20% of the lower limit of quantification (LLOQ). The calibration curves were evaluated using 10–4,000 ng/mL of ribociclib. Linearity was assessed by plotting the peak area ratios of the analyte to the IS against nominal concentrations, using weighted (1/x^2) least-squares linear regression. Accuracy and precision were determined for all concentrations derived from the calibration curves, ensuring that deviations were within 15% of the nominal concentration, except for the LLOQ, where the deviation should not exceed 20%. Precision and accuracy were assessed by analyzing plasma samples at low, medium, high, and LLOQ concentration levels over three consecutive days. The final precision and accuracy were determined by calculating the relative standard deviation (RSD) and relative error (RE) of the six samples. RSD and RE for QC concentrations were required to be within ±15%, and for the LLOQ, within ±20%. […]

[2] = system: Cyp3a1(CYP3A4) mRNA in the intestines; assay: qRT-PCR mRNA expression in rat intestine after ribociclib; format: in vivo; conditions: rats, ribociclib continuously for 8 days
Excerpt: (§1) qRT-PCR analysis was used to determine the mRNA levels of Cyp3a1(CYP3A4) in the liver and Abcb1a (P-gp), Cyp3a1(CYP3A4), Abcg2(BCRP) in the intestines. Total RNA was extracted from frozen liver and intestine samples using the TRNzol Universal reagent, following the manufacturer’s instructions. The Bio Tek Epoch (Bio Tek Instruments, Inc., Winooski, VT, United States) was used to quantify the purity and concentration of the total RNA, based on the ratio of the absorbance at 260 and 280 nm. The RNA samples, each containing 1 µg of material, were converted to complementary DNA (cDNA) using the FastKing RT Kit. The real-time PCR assays were performed using a two-step amplification protocol on the SLAN-96S Real-Time PCR system (Shanghai Hongshi Medical Technology Co., Ltd., Shanghai, China). […] was employed as an internal control, and the PCR cycling criteria were as follows: 95°C for 15 min, followed by 40 cycles of 95°C for 10 s and 60°C for 32 s.

[3] = system: Abcg2(BCRP) mRNA in the intestines; assay: as above; format: in vivo; conditions: rats, ribociclib continuously for 8 days
Excerpt: as §1

[4] = system: Abcb1a (P-gp) mRNA in the intestines; assay: as above; format: in vivo; conditions: rats, ribociclib continuously for 8 days
Excerpt: as §1

CYP3A4 = system: CYP3A4; set-up: method as in Sorf et al., 2018; conditions: in vitro; ref Sorf et al., 2018; read-out: half-maximal inhibitory concentration (IC50) against CYP3A4; cited from earlier work
[5] = set-up: method as in Hindley et al., 2023; conditions: ref Hindley et al., 2023; cited from earlier work
[6] = set-up: method as in Kvasnicka et al., 2017; conditions: ref Kvasnicka et al., 2017; cited from earlier work
CYP3A4/5 = system: CYP3A4/5; set-up: method as in Mueck et al., 2013; conditions: ref Mueck et al., 2013; cited from earlier work

| SMILES | stability of QC samples [1] | inhibition rate of intestinal Cyp3a1 mRNA expression [2] [%] | inhibition rate of intestinal Abcg2 mRNA expression [3] [%] | mRNA expression of Abcb1a in the intestine [4] | IC50 (CYP3A4) [µM] | plasma protein binding [5] | time to maximum plasma concentration (Cmax) after administration [6] [h] | share of total elimination by CYP3A4/5 (CYP3A4/5) |
| --- | --- | --- | --- | --- | --- | --- | --- | --- |
| CN(C)C(=O)c1cc2cnc(Nc3ccc(N4CCNCC4)cn3)nc2n1C1CCCC1 [RIBO, ribociclib] | excellent stability | 82.6 | 45.0 | no significant changes | […] | – | – | – |
| O=C(NC[C@H]1CN(c2ccc(N3CCOCC3=O)cc2)C(=O)O1)c1ccc(Cl)s1 [RIVA, rivaroxaban] | – | – | – | – | – | approximately 95% | 2 to 4 | approximately 18% |
